# Activity calls are given as the source filed them. The calls are words filed in the database; no cut-off is given here.
# Columns and labels:
# BV-2 [1] = assay: Anti-inflammatory activity against OGD/R and erastin induced ferroptosis in mouse BV-2 cells assessed as inhibition of IL-18 production preincubated for 6 hrs followed by OGD addition and measured after 1 hr by ELISA method; type: functional, cell-based; settings: dose 10-40 µM, time 7.0 hrs
# Mus musculus [2] = assay: Neuroprotective activity against MCAO-R induced 12 hrs fasted male C57BL/6J mouse model assessed as decrease in S100 expression in cortex by measuring decrease in fluorescence intensity administered once a day as ip dose for 7 days by immunofluorescence method; type: functional, organism-based; settings: dose 10-50 mg/kg, time 7.0 day
# HT-22 [3] = assay: Upregulation of GCLC protein level in OGD/R induced mouse HT-22 cells at 1 to 10 uM by Western blot analysis; type: functional, cell-based; settings: dose 1-10 µM
# HT-22 [4] = assay: Antioxidant activity against OGD/R induced damage in mouse HT-22 cells assessed as decrease in proportion of mitochondrial depolarized cells by JC-1 fluorescence based flow cytometry analysis; type: functional, cell-based; settings: dose 1-10 µM
# [5] = Antioxidant activity assessed as free radical scavenging activity at 40 to 80 uM incubated in dark for 30 mins under shaking condition by DPPH assay; type: functional; settings: dose 40-80 µM
# [6] = Antioxidant activity assessed as trolox equivalent of ORAC radical scavenging activity at 0.125 to 2 uM by AAPH based automatic microplate reader analysis; type: functional; settings: dose 0.125-2 µM
# HT-22 [7] = assay: Upregulation of Nrf2 protein level in OGD/R induced mouse HT-22 cells at 10 uM in presence of ML385 by Western blot analysis; type: functional, cell-based
# Mus musculus [8] = organism: Mus musculus; assay: Antiinflammatory activity in MCAO-R induced 12 hrs fasted male C57BL/6J mouse model assessed as reduction in IL-6 level by ELISA method; type: functional, organism-based
# Mus musculus [9] = assay: In vivo activation of Nrf2 pathway in MCAO-R induced 12 hrs fasted male C57BL/6J mouse model assessed as increase in NQO1 expression level at 10 to 50 mg/kg, ip by Western blot analysis; type: functional, organism-based; settings: dose 10-50 mg/kg
# Mus musculus [10] = assay: Neuroprotective activity against MCAO-R induced 12 hrs fasted male C57BL/6J mouse model assessed as decrease in S100 expression in DG by measuring decrease in fluorescence intensity administered once a day as ip dose for 7 days by immunofluorescence method; type: functional, organism-based; settings: dose 10-50 mg/kg, time 7.0 day
# HT-22 [11] = assay: Upregulation of Nrf2 mRNA level in OGD/R induced mouse HT-22 cells at 1 to 10 uM by qRT-PCR analysis; type: functional, cell-based; settings: dose 1-10 µM
# Mus musculus [12] = assay: Neuroprotective activity against MCAO-R induced 12 hrs fasted male C57BL/6J mouse model assessed as decrease in LDH level in cerebral ischemic tissue at 10 to 50 mg/kg, ip administered once a day for 7 days; type: functional, organism-based; settings: dose 10-50 mg/kg, time 7.0 day
# HT-22 [13] = assay: Cytoprotective activity against OGD/R induced mouse HT-22 cells assessed as increase in cell viability at 10 uM measured after 24 hrs in presence of ML385 by MTT assay; type: functional, cell-based
# HT-22 [14] = assay: Antioxidant activity against OGD/R induced oxidative stress in mouse HT-22 cells assessed as decrease in MDA content by absorbance based automatic microplate reader analysis; type: functional, cell-based
# HT-22 [15] = assay: Anti-ferroptotic activity in mouse HT-22 cells assessed as prevention of erastin-induced cell death at 1 to 10 uM by MTT assay; type: functional, cell-based; settings: dose 1-10 µM
# HT-22 [16] = assay: Upregulation of Nrf2 protein level in OGD/R induced mouse HT-22 cells at 1 to 10 uM by Western blot analysis; type: functional, cell-based; settings: dose 1-10 µM
# Mus musculus [17] = assay: Neuroprotective activity against MCAO-R induced 12 hrs fasted male C57BL/6J mouse model assessed as improvement in neuronal mortality at 10 to 50 mg/kg, ip administered once a day for 7 days by H and E staining based analysis; type: functional, organism-based; settings: dose 10-50 mg/kg, time 7.0 day
# Mus musculus [18] = assay: In vivo activation of Nrf2 pathway in MCAO-R induced 12 hrs fasted male C57BL/6J mouse model assessed as increase in GCLC expression level at 10 to 50 mg/kg, ip by Western blot analysis; type: functional, organism-based; settings: dose 10-50 mg/kg
# HT-22 [19] = assay: Antioxidant activity against OGD/R induced oxidative stress in mouse HT-22 cells assessed as increase in SOD activity by absorbance based automatic microplate reader analysis; type: functional, cell-based
# HT-22 [20] = assay: Anti-ferroptotic activity against OGD/R induced mouse HT-22 cells increase in GSH level at 10 uM in presence of ML385; type: functional, cell-based
# Mus musculus [21] = assay: Neuroprotective activity against MCAO-R induced 12 hrs fasted male C57BL/6J mouse model assessed as reduction in neurologic deficit score administered as ip once a day for 7 days by TTC staining based analysis; type: functional, organism-based; settings: time 7.0 day
# HT-22 [22] = assay: Cytoprotective activity against OGD/R induced mouse HT-22 cells assessed as increase in cell viability at 10 uM measured after 24 hrs by MTT assay; type: functional, cell-based
# Mus musculus [23] = assay: Neuroprotective activity against MCAO-R induced 12 hrs fasted male C57BL/6J mouse model assessed as alleviation of neurological impairment at 10 to 50 mg/kg, ip administered once a day for 7 days by H and E staining based analysis; type: functional, organism-based; settings: dose 10-50 mg/kg, time 7.0 day
# BV-2 [24] = assay: Anti-inflammatory activity against OGD/R and erastin induced ferroptosis in mouse BV-2 cells assessed as inhibition of TNF-alpha production preincubated for 6 hrs followed by OGD addition and measured after 1 hr by ELISA method; type: functional, cell-based; settings: dose 10-40 µM, time 7.0 hrs
# HT-22 [25] = assay: Induction of morphological changes in OGD/R induced mouse HT-22 cells assessed as attenuation of synaptic shortening by microscopic based analysis; type: functional, cell-based
# HT-22 [26] = assay: Upregulation of GPX4 protein level in OGD/R induced mouse HT-22 cells at 10 uM in presence of ML385 by Western blot analysis; type: functional, cell-based
# HT-22 [27] = assay: Anti-apoptotic activity in OGD/R mouse HT-22 cells assessed as reduction in proportion of apoptic cells by annexin V-FITC and PI staining based flow cytometry analysis; type: functional, cell-based; settings: dose 1-10 µM
# HT-22 [28] = assay: Cytoprotective activity against OGD/R induced mouse HT-22 cells assessed as inhibition of intracellular LDH release at 10 uM in presence of ML385; type: functional, cell-based
smiles,measurement,setting,value
Cc1ccc(C(=O)NCCc2c[nH]c3ccc(N(C)C)cc23)c(O)c1,Activity,BV-2 [1],Dose-Dependent Effect
same,Activity,Mus musculus [2],Dose-Dependent Effect
same,Activity,HT-22 [3],Active
same,Activity,HT-22 [4],Dose-Dependent Effect
same,Activity,[5],Active
same,Activity,[6],5.2
same,Activity,HT-22 [7],inactive
same,Activity,Mus musculus [8],Active
same,Activity,Mus musculus [9],Active
same,Activity,Mus musculus [10],Dose-Dependent Effect
same,Activity,HT-22 [11],Active
same,Activity,Mus musculus [12],Active
same,Activity,HT-22 [13],inactive
same,Activity,HT-22 [14],Active
same,Activity,HT-22 [15],Active
same,Activity,HT-22 [16],Active
same,Activity,Mus musculus [17],Active
same,Activity,Mus musculus [18],Active
same,Activity,HT-22 [19],Active
same,Activity,HT-22 [20],inactive
same,Activity,Mus musculus [21],Dose-Dependent Effect
same,Activity,HT-22 [22],Active
same,Activity,Mus musculus [23],Active
same,Activity,BV-2 [24],Dose-Dependent Effect
same,Activity,HT-22 [25],Active
same,Activity,HT-22 [26],inactive
same,Activity,HT-22 [27],Dose-Dependent Effect
same,Activity,HT-22 [28],inactive
